Experiment [1] addresses T1, human UDG (Homo sapiens, UniProt P13051). As to the kind of experiment: High-throughput screening assay: UDG-mediated unquenching of fluorescent uracil DNA hairpin. In kind it is biochemical. The arrangement: 6xHis; purchased XTAL Biostructures; host or cells: Sf9 insect cells. Particulars: purified human UDG, initial value, read-out: IC50 for the purified human UDG (un-quenching of fluorescence from the DNA hairpin). As for the experimental part: FIGS. 1(A-D) illustrate high-Throughput Small-Molecule Screening for UDG Inhibitors. A: 60 min reaction time-course experiment was performed to measure human UDG enzymatic activity in the presence of 10 nM UDG (red line) or absence of UDG (black line) uracil DNA hairpin (25 nM) only control. Each data point is the average of 12 reaction replicates from a 384-well plate. Error bars represent the standard deviation from the mean. B: Two independent screens using a plate of 320 compounds were plotted on the same graph with the trend line showing a positive correlation between the two runs with an R2 value of 0.711 using y=mx+b. […] Normalized percent activity of UDG-mediated unquenching of fluorescence DNA hairpin is shown. […] Control condition denotes RFU-UDG AVG (DNA alone no protein); the average relative fluorescence unit (RFU) value was computed using a set of 32 replicate wells per screening plate. […]
The collection of biologically active molecules was compiled from the LOPAC library (Sigma Aldrich) and Bioactive Compound Library (Selleck Chemicals). […] After 40 min of incubation at room temperature (˜23° C.), fluorescence measurements were done using an Enspire plate reader (Perkin Elmer) at an excitation wavelength of 485 nm and emission wavelength of 520 nm. Compound performance from per plate was calculated and normalized accounting for background fluorescence by the following equation: […]

For experiment [2], the target named is T1, human UDG. Kind of experiment: Gel-based DNA cleavage assay with a single U:A basepair. In kind it is biochemical. Details: 6xHis; purchased XTAL Biostructures; host or cells: Sf9 insect cells. The method, then:
20% polyacrylamide nucleic acid urea gel electrophoresis was used to resolve the DNA bands at room temperature, 200 v for 50 min. Analysis and quantification of DNA cleavage were done as follows. A background subtraction step was included using the 23mer from the DNA only lane. […] A single oxo-guanine: cytosine base pair DNA with a Cy3 fluorescent tag on the 3′ end was used (10 nM).
Following pre-incubation occurred for 20 min at 37° C., 2 μL of U:A DNA (500 nM stock) was added to initiate the reaction, total reaction volume of 50 μL/well. Each plate was incubated for 120 min at 37° C. Then, each 96 well plate was sealed and heated at a constant temperature of 95° C. for 55 min using the CFX96 real time system thermocycler. After the heating process, 5 μL of a bromophenol blue denaturing loading dye (20milligrams of bromophenol blue, 9.7 ml of formamide plus 300 μL of 10M NaOH) was added to each reaction well. […] TBE buffer was prepared by dissolving 54 grams of tris base, 28 grams of boric acid, and 4.5 grams of EDTA in 1.0 liter of distilled H2O. Gels were processed at 200V for 60 min in the dark. Gels were imaged based on the fluorescent tags using Typhoon Trio+Variable Mode Imager (Amersham Biosciences) with excitation and emission wavelengths set to 532 nm and 585 nm respectively, photomultiplier tube voltage (PMT) was set to 400V, and pixel size resolution set to 100 μm. Gel data were analyzed using ImageJ software. DNA bands were corrected using a background subtraction step. Percent cleavage was calculated by using fluorescence intensity of the cleaved 23-mer DNA strand divided by the sum of the fluorescence bands (23mer+40mer DNA strands)*100. Relative percent cleavage was generated by using the untreated DMSO condition divided by each treated drug dose*100.

Structures are written as SMILES. pIC50: −log10 of the molar value. “And” between values parts separate entries of the source, which are not always exact repeats. Identical values can stand only once.

T1 sequence (P13051 1-304 isoform P13051-2): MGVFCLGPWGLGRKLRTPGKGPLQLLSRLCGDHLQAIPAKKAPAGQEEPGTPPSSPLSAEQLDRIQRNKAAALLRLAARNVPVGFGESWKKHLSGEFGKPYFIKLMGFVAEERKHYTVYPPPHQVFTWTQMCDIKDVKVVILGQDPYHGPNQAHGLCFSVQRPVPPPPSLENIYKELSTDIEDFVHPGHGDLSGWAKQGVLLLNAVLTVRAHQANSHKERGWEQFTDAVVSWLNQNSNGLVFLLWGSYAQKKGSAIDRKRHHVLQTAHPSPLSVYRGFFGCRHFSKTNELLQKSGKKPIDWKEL

As to `O=C(O)C1=CC(=C(c2ccc(O)c(C(=O)O)c2)c2ccc(O)c(C(=O)O)c2)C=CC1=O` [ATA, aurintricarboxylic acid], the pIC50 (usually the IC50 on a negative log10 scale, so that one unit is a factor of ten) is 7.40 at human UDG [1]; 6.15 and ~6.15 on human UDG [2] (dsDNA oligo with single U:A base pair, gel-based, read-out: average IC50 towards UDG); 6.15 on human UDG [2] (estimated, read-out: IC50, DNA cutting). The “UDG-mediated DNA cutting activity” value at human UDG [2] (ATA 0.46-12.5 μM, UDG 500 pM, DNA 20 nM) is given as “diminishes UDG-mediated DNA cutting activity in a dose-dependent manner”.

(Values after patent US20240156764A1, “INHIBITION OF URACIL DNA GLYCOSYLASE IN THE OPEN CONFORMATION” (CASE WESTERN RESERVE UNIVERSITY, priority 2022, published 2024).)
